In patent US10016424B2, “Method and pharmaceutical composition for use in the treatment of epilepsy” (INSERM (Institut National de la Sante et de la Recherche …, priority 2013, dated 2018):

Legend:
[1] = test system: pilocarpine-status epilepticus model of chronic TLE; assay: Interictal spikes, in vivo local field potential recordings in DG of anesthetized pilocarpine-treated mice; parameters: species or system mouse
Method: All experiments were approved by the Institut National de la Santé et de la Recherche Médicale animal care and use committee of May 29, 2001 (2001-464) and the European community council directive of Nov. 24, 1986 (86/609/EEC). Mice (FVB/N background) had access to food and water ad libitum and were housed under a 12 h light/dark cycle at 22-24° C. Male GluK2−/− and WT mice (P60-80) were given scopolamine (1 mg/kg) subcutaneously (s.c.) 15 minutes prior to s.c. administration of pilocarpine (200-600 mg/kg). A ramp protocol was used whereby animals were given an initial dose of 200 mg/kg followed by half-doses every 30 minutes until seizures appeared. Both WT and GluK2−/− mice typically experienced at least two seizures prior to entering status epilepticus (SE). Diazepam (10 mg/kg) was administered 45 minutes after onset of SE.
Naïve wildtype (WT) and pilocarpine-treated WT or GluK2−/− mice (5-6 months old) were anaesthetized with xylazine 13 mg/kg/ketamine 66 mg/kg and placed in a stereotaxic frame (supplemental dosing was administered as required). Body temperature was maintained using a heating pad. The scalp was removed and a small bone window was drilled above the hippocampus (2.1 mm posterior to bregma and 1.4 mm lateral to midline over the right hemisphere). For local field potentials recordings performed in anaesthetized mice, a glass electrode ([…]) filled with Ringer solution (135 mM NaCl, 5.4 mM KCl, 1 mM MgCl2, 1.8 mM CaCl2, 5 mM HEPES) was inserted into the DG (depth, 1650 μm). Recordings were performed using a DAM-80 amplifier (low filter, 1 Hz; high filter, 3 KHz; World Precision Instruments, Sarasota, Fla.). UBP310 or vehicle (saline/10% DMSO) was subsequently injected intraperitoneally (i.p.). During recordings and subsequent analysis, the experimenter was blind to the genotype. For intrahippocampal electroencephalographic (EEG) recordings performed in freely-moving animal a stainless steel electrode (Plastic one, Roanoke, Va.) was inserted into the DG under anesthesia (see above). After a 4 day recovery, EEG (amplified (1000×), filtered at 0.16-97 Hz pass, acquired at 500 Hz) was monitored using a telemetric system (Data Sciences International, St. Paul, Minn.) for 4 days, 24 h per day. Intrahippocampal EEG traces represented the difference in potential between the electrode inserted into the DG and an electrode positioned above the cerebellum; food and water were given ad libitum. UBP310 or vehicle (saline/10% DMSO) was injected intraperitoneally twice a day.
In TLE, interictal spikes (ISs) represent one of the best documented biomarkers of epilepsy in patient and animal models (Staley et al., 2005). […]

[2] = test system: dentate gyrus of organotypic slices; assay: Spontaneous interictal-like activity, extracellular field recordings in pilocarpine-treated organotypic hippocampal slice cultures; type: cell-based, mouse
Method: Hippocampal/entorhinal cortex slices (350 μm) were prepared from pre-genotyped GluK2−/− and WT mice (P9-10, FVB/N background) using a McIlwain tissue chopper. Slices were placed on mesh inserts (Millipore # PICMORG50) inside culture dishes containing 1 ml of the following medium: MEM 50%, HS 25%, HBSS 25%, HEPES 15 mM glucose 6.5 mg/ml and insulin 0.1 mg/ml. Culture medium was changed every 2-3 days and slices maintained in an incubator at 37° C./5% CO2. Pilocarpine (0.5 μM) was added to the medium at 5 D.I.V and removed at 7 D.I.V; slices were utilized for experiments from 9 D.I.V.
Cultured or acute slices were individually transferred to a recording chamber maintained at 30-32° C. and continuously perfused (2 ml/min) with oxygenated normal or adapted ACSF containing 5 μM gabazine. Local field potentials were made in the granule cell layer of the DG with glass electrodes (2-3 MΩ; filled with normal ACSF) using a DAM-80 amplifier (low filter, 1 Hz; […], 3 KHz; World Precision Instruments, Sarasota, Fla.). For evoked synaptic transmission, electrical stimulation was performed with a bipolar NiCh electrode (#762000, AM systems). Whole-cell voltage-clamp recordings of DGCs were made using tight-seal electrodes (5-8 MΩ) filled with an internal solution containing the following (in mM): 135 gluconic acid, 135 CsOH, 10 MgCl2, 0.1 CaCl2, 1 EGTA, 10 HEPES, 2 MgATP, 0.4 NaGTP, and 0.5% biocytin, pH 7.25. We used a Multiclamp 700B amplifier (Molecular Devices): data were filtered at 2 kHz, digitized (20 kHz) with a Digidata 1440A (Molecular Devices) to a PC, and acquired using Clampex 10.1 software (PClamp, Molecular Devices). Signals were analyzed off-line using Clampfit 9.2 (PClamp) and MiniAnalysis 6.0.1 (Synaptosoft, Decatur, Ga.). In organotypic slices, spontaneous EPSCs were recorded at the reversal potential for GABAergic currents (Vh=−70 mV). To characterize the nature and kinetic properties of fast and slow events, miniature EPSCs (mEPSCs) evoked in Sr2+ conditions (external Ca2+ was substituted with 1.2 mM Sr2+) were recorded in DGCs from GluK2−/− and WT slices. Electrical stimulation was made in the molecular layer in the continued presence of 5 μM gabazine and 40 μM D-APV; asynchronous mEPSCs were measured during the 300 ms period after the stimulus artifact. […] In cultured slices, visual representation of time-frequency analysis of local field potentials was performed using Autosignal software (Seasolve 1.7). In brief, field activity was highpass-filtered (>100 Hz) and time-frequency analysis performed using a continuous wavelet (Morlet) that reported integrated power (time-integral-squared amplitude, TISA) across time. Filtered traces were also analyzed by Fourier analysis (Hamming) using Clampfit 9.2. In acute hippocampal slices, intensity of antidromically-evoked bursts was quantified using coastline index (Epsztein et al., 2005).
The role of KARs in spontaneous epileptiform activity was then tested using extracellular field recordings in cultured slices. Recordings were performed in 5 mM K+-containing ACSF and in the presence of 5 μM gabazine in order to enhance neuronal excitability and to reliably record stereotyped spontaneous interictal-like activity (Berdichevsky et al., 2012).

[3] = slices from WT mice, 10 μM SYM2081 or 5 μM UBP310

Cc1cn(C[C@H](N)C(=O)O)c(=O)n(Cc2ccsc2C(=O)O)c1=O [UBP310]
reduction of number of interictal spikes (ISs) ([1]; 60 mg/kg intraperitoneal, WT epileptic mice, anesthetized): 64% | change in IS amplitude ([1]; 60 mg/kg intraperitoneal, WT epileptic mice, data not shown): no change in amplitude | effect on number of ISs in GluK2-/- mice ([1]; 60 mg/kg, GluK2-/- mice, P=0.497): no effect | effect on IS number at dose reduced by 10 times ([1]; injected dose reduced by 10 times from 60 mg/kg, P=0.548): no significant effect | effect on interictal-like activity in GluK2-/- mice slices ([2]; GluK2-/- slices, P=0.563, n=7): no effect | alteration of the PD phase (power of paroxysmal discharge) [2, 3]: No significant alteration | reduction of power of the bursts in the late MB phase [2, 3]: 67% | reduction of frequency of interictal-like activity ([2]; slices from WT mice, 10 μM SYM2081 or 5 μM UBP310, 5 mM K+ ACSF, 5 μM gabazine): 49% | frequency of interictal-like activity ([2]; slices from WT mice, 10 μM SYM2081 or 5 μM UBP310, without antagonist 3.2±0.4, mean±SEM): 1.47±0.4 events/min
